# Laboratory results: patent US12435091B2, “RNA-binding protein multimerization inhibitors and methods of use thereof” (THE UAB RESEARCH FOUNDATION, priority 2020, dated 2025)
# Key:
# AAK1 = AAK1 (Homo sapiens, UniProt Q2M2I8); assay: SelectScreen kinase profiling, LanthaScreen Binding
# Method: (§1) The kinase inhibitory potentials of compounds as described herein (e.g., SRI-42127 and SRI-41664) were evaluated by ThermoFisher Scientific's SelectScreen™ Kinase Profiling Service. The following kinase inhibitory assays were utilized: ZLYTE (Madison, WI) for NTRK1, PIM1, and cMET kinases; LanthaScreen Binding (Madison, WI) for AAK1 kinase; and Adapta (Madison, WI) for IRAK1 kinase.
# HMGB1 = assay: nuclear/cytoplasmic localization by confocal microscopy in LPS-activated primary microglia; format: cell-based, mouse; details: 0.5 μM for 24 hours
# Method: To assess the specificity of SRI-42127 for blocking HuR cytoplasmic translocation, the effect of SRI-42127 on cytoplasmic translocation of HMGB1 was assessed. Like HuR, HMGB1 is nuclear predominant and translocates with microglial activation. Primary microglia were treated with LPS and 0.5 μM of SRI-42127 for 24 hours. Cells were fixed and immunostained for HMGB1 and IBA1. Nuclear/cytoplasmic localization was assessed by confocal microscopy. Total HMGB1 immunofluorescence in each cell (boundaries defined by IBA1 staining), was quantified using Fiji software. The nuclear portion was determined by quantifying the amount of HMGB1 fluorescence that overlapped with DAPI fluorescence. HuR translocation was studied in parallel with the same methodology.
# In unactivated microglia (LPS-), both HuR and HMGB1 were nuclear predominant with little to no merged signal with cytoplasmic IBA1 as depicted in FIG. 11, Panel C.
# [1] = tested on: Bcl2 and Mcl1 mRNAs in U87 cell line; assay: Taqman quantification of Bcl2/18S and Mcl1/18S mRNA; format: cell-based; details: U87, 10 uM for 24 hours
# Method: (§2) The HuR-mRNA co-immunoprecipitation (IP) was performed by utilizing RiboCluster Profiler RIP-assay Kit (MBL International). The quantifications of Bcl2, and 18S transcripts were performed using Taqman technique with the following gene-specific probes: Hs00153350_m1, Hs03003631_g1, and Hs00766187_m1 (ThermoFisher Scientific) for Bcl2, 18S, and Mcl1, respectively.
# (§3) mRNA isolation and purification from adherent cells were performed using RNeasy Mini Kit and QIAshredder columns (Qiagen, Valencia, CA).
# (§4) HuR protein plays a significant role in the stabilization of the mRNAs of the anti-apoptotic Bcl2-family, which contributes to the protection of genetically unstable glioma cells from apoptosis. Therefore, the Bcl2 family was evaluated in the established and PDGx cell lines after cell treatment with SRI-41664 or SRI-42127 compounds. […] The protein levels of Bcl2 and Mcl1 were evaluated in the established U251 and PDGx XD456 glioma cell lines in the control (vehicle treatment) and after treatment with SRI-41664 or SRI-42127 compounds for 48 hours.
# [2] = tested on: Bcl2 and Mcl1 mRNAs in LN229 cell line; assay: as above; format: cell-based; details: LN229, 10 uM for 24 hours
# Method: as §2, §3, §4
# [3] = tested on: Bcl2 and Mcl1 mRNAs in PDGx XD456 cell line; assay: as above; format: cell-based; details: XD456, 10 uM for 24 hours
# Method: as §2, §3, §4
# [4] = tested on: Bcl2 and Mcl1 mRNAs in U251 cell line; assay: as above; format: cell-based; details: U251, 10 uM for 24 hours
# Method: as §2, §3, §4
# [5] = tested on: inflammatory cytokines, chemokines and other mediators in primary microglial cells; assay: qPCR of inflammatory mediator mRNAs in LPS-activated primary microglia; format: cell-based, mouse; details: 24 hours
# Method: Cultured primary microglial cells isolated from neonatal mouse brain were treated with LPS to achieve activation. Cells were then treated with varying doses of SRI-42127 or vehicle for 24 hours. Total RNA was harvested from the cells and various mRNAs were quantified by qPCR as depicted in FIG. 12. Consistent with microglial activation, there were large inductions of inflammatory cytokines, chemokines and other mediators including IL-1β, IL-6, TNF-α, iNOS, IL-10, CXCL1, CXCL2, CXCL10, CCL2, CCL3, and CCL4. These inductions were as high as ˜3500-fold for IL-6.
# Major chemokines CXCL1, CXCL2 and CCL3 were suppressed by more than 2-fold. There was a mixed effect on markers of M2-like markers, with TGF-β1 and YM1 increasing and IL-10 decreasing. As these inflammatory factors were secreted, they were quantified by ELISA in culture medium. The greatest effect was with IL-6 which was suppressed at a lower dose of SRI-42127 (1.7-fold at 0.1 μM) and nearly 10-fold at 1.0 μM. IL-1β and TNF-α were suppressed by 5-fold at 1.0 μM.
# U251 cell line = assay: attached cell colony formation assay; format: cell-based; details: 3 uM
# Method: (§5) The soft agar colony formation assay was performed by using 0.9% and 0.45% agarose for the bottom and the top layers, respectively; cells were incorporated in the top layer. Seaplaque low-melting temperature agarose was purchased from Lonza (Rockland, ME). Five hundred cells per well were utilized in both, the soft agar and the attached colony formation assays, which were performed in 6 well plates; cells were treated with vehicle as the control or with the desired drugs, which were administered twice per week for three weeks. The Crystal violet solution (0.1%) was utilized for colony staining in both assays. The colonies were counted after three weeks of treatment; the plate images were obtained by using Amersham Imager-600 reader (Piscataway, NJ).
# (§6) Graphs in FIG. 8D illustrate the average numbers of colonies formed by established U251 and PDGx XD456 cell lines in the attached cell colony formation assay and in the soft agar colony formation assay, which represents anchorage independent cell growth.
# XD456 cell line = assay: attached cell colony formation assay; format: cell-based; details: 3 uM
# Method: as §5, §6
# IRAK1 = IRAK1 (Homo sapiens, UniProt P51617); assay: SelectScreen kinase profiling, Adapta; format: biochemical
# Method: as §1
# AAK1, sequence (Q2M2I8 whole entry): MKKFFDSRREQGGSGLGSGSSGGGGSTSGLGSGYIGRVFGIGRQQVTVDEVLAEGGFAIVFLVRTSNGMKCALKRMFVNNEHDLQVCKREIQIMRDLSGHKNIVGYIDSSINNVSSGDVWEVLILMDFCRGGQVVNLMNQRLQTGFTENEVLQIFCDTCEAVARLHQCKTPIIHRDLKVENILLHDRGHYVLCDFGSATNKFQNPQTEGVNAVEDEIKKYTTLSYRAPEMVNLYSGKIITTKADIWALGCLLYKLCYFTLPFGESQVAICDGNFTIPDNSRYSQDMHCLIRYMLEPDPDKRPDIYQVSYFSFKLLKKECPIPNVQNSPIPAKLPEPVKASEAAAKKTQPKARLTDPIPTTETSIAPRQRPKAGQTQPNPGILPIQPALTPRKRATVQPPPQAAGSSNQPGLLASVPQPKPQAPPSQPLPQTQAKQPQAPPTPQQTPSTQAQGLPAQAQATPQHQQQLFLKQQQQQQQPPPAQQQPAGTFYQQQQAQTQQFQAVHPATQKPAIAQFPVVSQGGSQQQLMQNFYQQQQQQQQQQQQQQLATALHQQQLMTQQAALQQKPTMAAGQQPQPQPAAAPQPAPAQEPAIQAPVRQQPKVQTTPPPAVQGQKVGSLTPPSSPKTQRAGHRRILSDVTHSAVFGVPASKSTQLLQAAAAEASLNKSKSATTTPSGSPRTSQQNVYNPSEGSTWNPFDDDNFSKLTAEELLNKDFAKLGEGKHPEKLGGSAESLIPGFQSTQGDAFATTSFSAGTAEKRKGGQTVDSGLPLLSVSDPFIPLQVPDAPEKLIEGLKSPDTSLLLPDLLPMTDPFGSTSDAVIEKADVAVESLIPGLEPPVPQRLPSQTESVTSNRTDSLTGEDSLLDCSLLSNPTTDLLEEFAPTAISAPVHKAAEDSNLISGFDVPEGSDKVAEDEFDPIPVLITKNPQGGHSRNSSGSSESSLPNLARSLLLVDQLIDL
# IRAK1, sequence (P51617 whole entry): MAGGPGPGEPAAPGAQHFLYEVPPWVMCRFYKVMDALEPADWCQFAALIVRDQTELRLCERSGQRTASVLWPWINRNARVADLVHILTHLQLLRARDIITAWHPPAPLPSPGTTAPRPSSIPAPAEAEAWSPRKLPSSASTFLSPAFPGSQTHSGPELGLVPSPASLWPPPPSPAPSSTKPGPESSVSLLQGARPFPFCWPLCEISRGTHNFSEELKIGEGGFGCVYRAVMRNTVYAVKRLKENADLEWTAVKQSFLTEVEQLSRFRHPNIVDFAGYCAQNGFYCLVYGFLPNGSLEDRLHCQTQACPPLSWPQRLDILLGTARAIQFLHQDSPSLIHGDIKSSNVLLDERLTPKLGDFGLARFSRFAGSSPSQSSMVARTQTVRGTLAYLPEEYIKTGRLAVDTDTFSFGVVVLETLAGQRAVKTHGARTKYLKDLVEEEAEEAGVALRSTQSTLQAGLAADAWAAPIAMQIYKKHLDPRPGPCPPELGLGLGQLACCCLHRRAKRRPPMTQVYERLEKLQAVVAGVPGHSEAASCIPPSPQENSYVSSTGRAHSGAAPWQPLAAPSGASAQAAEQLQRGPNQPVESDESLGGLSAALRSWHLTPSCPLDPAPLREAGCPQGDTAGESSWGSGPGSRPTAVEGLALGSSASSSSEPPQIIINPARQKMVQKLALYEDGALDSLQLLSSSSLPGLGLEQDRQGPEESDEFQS
smiles,measurement,setting,value
CN(c1ccc2ncc(-c3ccc4cn[nH]c4c3)n2n1)C1CCOCC1 [Compound 19],IC50,AAK1,120 nM
same,HMGB1 N/C ratio,HMGB1,no effect
same,decrease of Bcl2/18S mRNA ratio,[1],95±2%
same,decrease of Mcl1/18S mRNA ratio,[1],86±7%
same,decrease of Bcl2/18S mRNA ratio,[2],95±2%
same,decrease of Mcl1/18S mRNA ratio,[2],87±8%
same,decrease of Bcl2/18S mRNA ratio,[3],96±2%
same,decrease of Mcl1/18S mRNA ratio,[3],90±9%
same,decrease of Bcl2/18S mRNA ratio,[4],96±2%
same,decrease of Mcl1/18S mRNA ratio,[4],95±3%
same,suppression of CCL3 mRNA,[5],more than 2 fold
same,suppression of CXCL1 mRNA,[5],more than 2 fold
same,suppression of CXCL2 mRNA,[5],more than 2 fold
same,suppression of IL-1β mRNA,[5],5.9 fold
same,suppression of IL-6 mRNA,[5],6.8 fold
same,suppression of TNF-α mRNA,[5],1.6 fold
same,suppression of iNOS mRNA,[5],8 fold
same,number of colonies,U251 cell line,49+28
same,number of colonies,XD456 cell line,34+12
same,IC50,IRAK1,319 nM
